Here are results for one compound from BindingDB's records for doi:10.1021/acsmedchemlett.8b00532 (Sapienza University of Rome, 2019).

A short description of the assay: Inhibition of NHERF1 in human SW620 cells expressing NHERF1 assessed as inhibition cell growth incubated for 72 hrs by MTT assay. (In general: Formazan colour is commonly taken as a measure of viable cells.)

A word on the IC50: it is the concentration needed to halve the response being measured. As for `Cc1cc([N+](=O)[O-])ccc1NS(=O)(=O)c1cc(Cl)ccc1Cl`, the half-inhibitory concentration (IC50) is 19 µM.
